According to patent US9926302B2, “Heteroaryl substituted heterocyclyl sulfones” (priority 2014, dated 2018):

Target: T1, Human CaV2.2 channels (Homo sapiens, UniProt Q00975)
T1 construct: expressed in transfected cells
Experiment: Fluorescence assay for CaV2.2 channels using potassium depolarization to induce channel opening (FLIPR, Fluo 4)
Format: cell-based
Conditions: alternative assay buffer 30 mM KCl (inactivated channel state), HEK293 cells stably expressing human CaV2.2; for inhibition at 3 µM: HEK293, 3 μM test compound, read-out: Activity Category: %-Inhib (CaV2.2) @3 μM @30 mM KCl; for Activity Category: %-Inhib (CaV2.2) @3 μM @30 mM KCl: 3 μM test compound
Excerpt: In the process, the Ca^2+ influx is quantified in the FLIPR assay with the aid of a Ca^2+-sensitive dye (type Fluo-4, Molecular Probes Europe BV, Leiden, the Netherlands) in a fluorescent imaging plate reader (FLIPR 3, Molecular Devices, Sunnyvale, USA), as described hereinafter.
2.1 Fluorescence Assay for CaV2.2 Channels Using Potassium Depolarization to Induce Channel Opening
Human CaV2.2 channels were stably expressed in HEK293 cells together with alpha2-delta and beta subunits of voltage gated calcium channels. In addition, an inwardly rectifying potassium channel (Kir2.3) was stably expressed in these cells to augment control of the cell membrane potential by the concentration of extracellular potassium ions. Raise of the extracellular potassium concentration leads to depolarization of the membrane potential and thus regulates the voltage dependent state of CaV2.2 channels. For preparation, cells were seeded in black poly-D-lysine coated 96-well plates (Becton Dickinson, Biocoat 4640) in 100 μL medium [500 mL DMEM/F-12 plus Glutamax (Invitrogen 31331-093) plus 5.5 mL MEM NEAA 100× (Invitrogen 11140-035) plus 50 mL FBS decomplemented (Invitrogen 10270-106) plus 200 μg/mL Geneticin (Invitrogen 10131-027) plus 50 μg/mL Hygromycin B (Invitrogen 10687-010) plus 2 μg/mL Blasticidin (anti-bl5b Invivo-Gen) plus 0.2 μg/mL Puromycin (A 11138-03)] at a cell density of 30.000 cells per well. Plates were incubated at 37° C. (5% CO2) for 20 to 23 h. On the day of experiment medium was discarded and cells were loaded with Fluo 4 by addition of 100 μL of basic assay buffer (10 mM HEPES, 1 mM KCl, 149 mM NaCl, 0.8 mM CaCl2, 1.7 mM MgCl2, 10 mM Glucose, 0.1% BSA. pH 7.4) containing 2 μM Fluo 4 (Molecular Probes; F-14201), 0.01% pluronic acid (Molecular Probes; P-6866) and 2.5 mM probenecid (Molecular Probes; P36400). Cells were incubated in the dark at 25° C. for 60 min. Then dye containing buffer was discarded and 100 μL basic (1 mM KCl) or alternative (30 mM KCl) assay buffer was added. The alternative assay buffer contained altered concentrations of KCl (30 mM) and NaCl (120 mM) and was used in order to promote the inactivated channel state. After that 25 μL of basic or alternative assay buffer with or without test compound were added and cells were incubated again in the dark at 25° C. for 15 min. Fluorescence intensity was measured on a FLIPR 3 instrument (Molecular Devices Corp., Sunnyvale, Calif.) with excitation at 480 nm and emission at 535 nm. After continuously reading fluorescence for 30 sec, 50 μL of basic assay buffer containing 210 mM KCl (NaCl omitted) were added for depolarization. Peak fluorescent signal intensity was determined and the amplitude of the peak signal, normalized to base line, was used to measure channel inhibition by test compounds.

T1 sequence (P54289 947-1103): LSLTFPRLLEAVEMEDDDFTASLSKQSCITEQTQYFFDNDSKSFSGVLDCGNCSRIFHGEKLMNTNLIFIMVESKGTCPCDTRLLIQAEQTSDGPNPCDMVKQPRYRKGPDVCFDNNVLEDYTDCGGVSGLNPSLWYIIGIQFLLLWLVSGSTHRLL
T1 sequence (P54289 25-946): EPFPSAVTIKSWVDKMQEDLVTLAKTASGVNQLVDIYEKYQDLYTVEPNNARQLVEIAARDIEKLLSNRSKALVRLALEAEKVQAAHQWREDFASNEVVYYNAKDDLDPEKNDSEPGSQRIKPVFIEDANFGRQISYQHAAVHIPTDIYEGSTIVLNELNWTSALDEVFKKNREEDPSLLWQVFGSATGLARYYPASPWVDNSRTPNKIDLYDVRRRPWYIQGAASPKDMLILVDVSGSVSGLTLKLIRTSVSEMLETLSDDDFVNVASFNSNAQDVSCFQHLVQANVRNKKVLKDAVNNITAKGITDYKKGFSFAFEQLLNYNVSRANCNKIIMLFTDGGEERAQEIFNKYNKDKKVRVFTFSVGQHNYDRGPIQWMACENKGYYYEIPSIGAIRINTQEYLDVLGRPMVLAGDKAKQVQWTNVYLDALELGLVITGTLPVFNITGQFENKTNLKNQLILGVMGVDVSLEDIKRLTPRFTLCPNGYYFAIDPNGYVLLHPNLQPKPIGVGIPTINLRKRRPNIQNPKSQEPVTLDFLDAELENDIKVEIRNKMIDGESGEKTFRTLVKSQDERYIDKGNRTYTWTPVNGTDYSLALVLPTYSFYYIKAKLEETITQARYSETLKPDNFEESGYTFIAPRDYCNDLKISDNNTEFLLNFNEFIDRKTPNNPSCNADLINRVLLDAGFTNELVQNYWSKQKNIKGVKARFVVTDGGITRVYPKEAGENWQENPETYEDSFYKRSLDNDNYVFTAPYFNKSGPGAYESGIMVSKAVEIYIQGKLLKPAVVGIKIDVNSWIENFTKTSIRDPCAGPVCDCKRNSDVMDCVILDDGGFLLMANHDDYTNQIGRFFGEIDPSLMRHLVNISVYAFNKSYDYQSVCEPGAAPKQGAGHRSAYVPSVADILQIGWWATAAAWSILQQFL
T1 sequence (P54284 whole entry, further chain): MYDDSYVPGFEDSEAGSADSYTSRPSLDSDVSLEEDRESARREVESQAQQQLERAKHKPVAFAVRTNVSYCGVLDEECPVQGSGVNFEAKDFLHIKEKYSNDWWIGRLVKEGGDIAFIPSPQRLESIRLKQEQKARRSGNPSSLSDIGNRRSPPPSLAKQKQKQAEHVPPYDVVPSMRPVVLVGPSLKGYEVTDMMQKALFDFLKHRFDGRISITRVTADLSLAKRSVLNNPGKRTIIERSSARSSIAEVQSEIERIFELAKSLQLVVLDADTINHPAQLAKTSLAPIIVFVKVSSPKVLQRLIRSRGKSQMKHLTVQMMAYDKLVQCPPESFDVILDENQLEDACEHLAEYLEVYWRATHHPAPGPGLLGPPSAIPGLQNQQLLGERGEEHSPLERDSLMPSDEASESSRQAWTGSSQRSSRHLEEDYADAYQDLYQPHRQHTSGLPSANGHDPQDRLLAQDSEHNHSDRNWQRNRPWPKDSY
T1 sequence (Q00975 whole entry): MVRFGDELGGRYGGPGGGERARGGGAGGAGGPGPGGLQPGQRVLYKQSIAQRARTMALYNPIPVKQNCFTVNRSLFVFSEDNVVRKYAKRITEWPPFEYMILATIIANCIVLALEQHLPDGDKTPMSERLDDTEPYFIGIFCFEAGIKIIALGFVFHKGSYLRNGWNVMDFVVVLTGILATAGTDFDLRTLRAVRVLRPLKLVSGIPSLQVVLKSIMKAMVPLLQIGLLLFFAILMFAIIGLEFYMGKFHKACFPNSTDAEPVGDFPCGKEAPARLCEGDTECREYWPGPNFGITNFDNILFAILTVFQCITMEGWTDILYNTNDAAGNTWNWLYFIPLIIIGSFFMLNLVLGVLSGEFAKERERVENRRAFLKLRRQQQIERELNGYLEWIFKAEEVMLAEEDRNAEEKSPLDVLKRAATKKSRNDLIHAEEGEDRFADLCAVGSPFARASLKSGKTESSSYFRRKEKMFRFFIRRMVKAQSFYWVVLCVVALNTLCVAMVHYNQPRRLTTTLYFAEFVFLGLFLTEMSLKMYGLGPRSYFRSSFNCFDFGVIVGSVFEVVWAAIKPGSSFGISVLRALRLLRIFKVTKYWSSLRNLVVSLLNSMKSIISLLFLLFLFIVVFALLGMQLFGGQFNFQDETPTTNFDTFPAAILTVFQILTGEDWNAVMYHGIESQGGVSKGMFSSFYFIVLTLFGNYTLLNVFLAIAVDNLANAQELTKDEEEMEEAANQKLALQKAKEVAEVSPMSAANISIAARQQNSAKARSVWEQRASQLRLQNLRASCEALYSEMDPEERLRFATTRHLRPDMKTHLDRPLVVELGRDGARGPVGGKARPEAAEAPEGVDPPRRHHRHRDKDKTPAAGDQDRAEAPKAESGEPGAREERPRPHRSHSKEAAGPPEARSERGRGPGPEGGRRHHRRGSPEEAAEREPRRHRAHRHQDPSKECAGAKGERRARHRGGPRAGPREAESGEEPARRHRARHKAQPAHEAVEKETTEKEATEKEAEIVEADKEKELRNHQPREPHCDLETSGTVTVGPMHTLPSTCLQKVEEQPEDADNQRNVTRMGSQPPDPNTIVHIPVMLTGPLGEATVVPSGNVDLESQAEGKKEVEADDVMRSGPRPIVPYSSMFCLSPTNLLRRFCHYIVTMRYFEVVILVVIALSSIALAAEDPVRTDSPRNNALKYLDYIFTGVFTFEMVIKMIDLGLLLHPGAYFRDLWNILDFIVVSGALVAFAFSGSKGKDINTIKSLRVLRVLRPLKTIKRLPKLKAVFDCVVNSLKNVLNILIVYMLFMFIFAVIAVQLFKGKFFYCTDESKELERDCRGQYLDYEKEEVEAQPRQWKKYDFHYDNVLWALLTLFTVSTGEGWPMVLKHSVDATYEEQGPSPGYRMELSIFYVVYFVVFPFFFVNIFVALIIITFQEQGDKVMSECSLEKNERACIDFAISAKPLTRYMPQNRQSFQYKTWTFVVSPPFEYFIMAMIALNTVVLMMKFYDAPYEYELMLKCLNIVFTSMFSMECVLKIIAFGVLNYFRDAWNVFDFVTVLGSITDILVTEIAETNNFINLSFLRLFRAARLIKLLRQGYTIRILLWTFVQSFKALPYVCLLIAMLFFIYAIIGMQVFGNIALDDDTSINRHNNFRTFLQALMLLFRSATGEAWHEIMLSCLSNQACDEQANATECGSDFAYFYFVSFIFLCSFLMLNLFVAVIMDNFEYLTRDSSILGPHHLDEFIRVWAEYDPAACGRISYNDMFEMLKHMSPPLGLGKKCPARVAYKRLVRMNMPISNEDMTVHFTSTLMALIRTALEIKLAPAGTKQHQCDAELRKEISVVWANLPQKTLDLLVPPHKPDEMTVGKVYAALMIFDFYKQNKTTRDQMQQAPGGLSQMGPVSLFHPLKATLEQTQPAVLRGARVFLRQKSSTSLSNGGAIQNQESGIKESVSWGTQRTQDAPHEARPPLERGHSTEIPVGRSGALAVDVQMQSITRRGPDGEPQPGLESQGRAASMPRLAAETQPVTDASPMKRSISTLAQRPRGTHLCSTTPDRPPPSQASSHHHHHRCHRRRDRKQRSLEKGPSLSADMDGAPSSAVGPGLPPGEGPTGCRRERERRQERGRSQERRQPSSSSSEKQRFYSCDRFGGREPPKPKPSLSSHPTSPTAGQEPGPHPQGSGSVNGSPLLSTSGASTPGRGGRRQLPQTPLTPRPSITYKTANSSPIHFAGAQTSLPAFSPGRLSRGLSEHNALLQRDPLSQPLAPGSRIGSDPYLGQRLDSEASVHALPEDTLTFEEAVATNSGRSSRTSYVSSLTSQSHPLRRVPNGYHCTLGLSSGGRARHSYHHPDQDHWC

| SMILES | inhibition at 3 µM [%] | Activity Category: %-Inhib (CaV2.2) @3 μM @30 mM KCl |
| --- | --- | --- |
| CC1(S(=O)(=O)c2cccc(C(F)(F)F)c2)CCOC(c2ncc(OC(F)F)cc2Cl)C1 (racemic) [SC-438, 3-Chloro-5-(difluoro-methoxy)-2-[4-methyl-4-[[3-(trifluoromethyl)phenyl]sulfonyl]-tetrahydro-pyran-2-yl]-pyridine] | > 95 |  |
| Cc1cc(S(C)(=O)=O)cnc1C1CC(C)(S(=O)(=O)c2cccc(C(F)(F)F)c2)CCO1 (racemic) [SC-441, 3-Methyl-5-methylsulfonyl-2-[4-methyl-4-[[3-(trifluoromethyl)phenyl]sulfonyl]-tetrahydro-pyran-2-yl]-pyridine] | 75 to 95 |  |
| Cc1cc(S(C)(=O)=O)cnc1C1CC(C)(S(=O)(=O)c2cccc(OC(F)(F)F)c2)CCO1 (racemic) [SC-451, 3-Methyl-5-methylsulfonyl-2-[4-methyl-4-[[3-(trifluoromethyloxy)-phenyl]sulfonyl]-tetrahydro-pyran-2-yl]-pyridine] | 40 to 75 |  |
| CC1(S(=O)(=O)c2cccc(C(F)(F)F)c2)CCOC(c2noc(C3CC3)n2)C1 (single isomer, unassigned) [SC-110, 5-Cyclopropyl-3-[4-methyl-4-[[3-(trifluoromethyl)phenyl]sulfonyl]-tetrahydro-pyran-2-yl]-[1,2,4]oxadiazole] | 75 to 95 |  |
| Cc1ccc(OCC2CC(C)(S(=O)(=O)c3cccc(C(F)(F)F)c3)CCO2)cn1 (single isomer, unassigned) [SC-112, 2-Methyl-5-[[4-methyl-4-[[3-(trifluoromethyl)phenyl]sulfonyl]-tetrahydro-pyran-2-yl]-methoxy]-pyridine] |  | C (%-Inhibition >40% up to ≤75%) |
| Cc1ccc(OCC2CC(C)(S(=O)(=O)c3cccc(C(F)(F)F)c3)CCO2)cn1 (single isomer, unassigned) [SC-113, 2-Methyl-5-[[4-methyl-4-[[3-(trifluoromethyl)phenyl]sulfonyl]-tetrahydro-pyran-2-yl]-methoxy]-pyridine] |  | B (%-Inhibition >75% up to ≤95%) |
| CC1(S(=O)(=O)c2cccc(C(F)(F)F)c2)CCOC(c2cncc(C(F)(F)F)c2)C1 (single isomer, unassigned) [SC-115, 3-[4-Methyl-4-[[3-(trifluoromethyl)phenyl]sulfonyl]-tetrahydro-pyran-2-yl]-5-(trifluoromethyl)-pyridine] | 75 to 95 |  |
| CC1(S(=O)(=O)c2cccc(C(F)(F)F)c2)CCOC(c2cncc(C(F)(F)F)c2)C1 (single isomer, unassigned) [SC-116, 3-[4-Methyl-4-[[3-(trifluoromethyl)phenyl]sulfonyl]-tetrahydro-pyran-2-yl]-5-(trifluoromethyl)-pyridine] |  | A (%-Inhibition >95%) |
| CC1(S(=O)(=O)c2cccc(C(F)(F)F)c2)CCOC(COc2ccc(C3CC3)nc2)C1 (single isomer, unassigned) [SC-117, 2-Cyclopropyl-5-[[4-methyl-4-[[3-(trifluoromethyl)phenyl]sulfonyl]-tetrahydro-pyran-2-yl]-methoxy]-pyridine] |  | B (%-Inhibition >75% up to ≤95%) |
| CC1(S(=O)(=O)c2cccc(C(F)(F)F)c2)CCOC(COc2ccc(C3CC3)nc2)C1 (single isomer, unassigned) [SC-118, 2-Cyclopropyl-5-[[4-methyl-4-[[3-(trifluoromethyl)phenyl]sulfonyl]-tetrahydro-pyran-2-yl]-methoxy]-pyridine] | > 95 |  |
| CC1(S(=O)(=O)c2cccc(C(F)(F)F)c2)CCOC(c2ncc(S(C)(=O)=O)cc2F)C1 (single isomer, unassigned) [SC-119, 3-Fluoro-5-methylsulfonyl-2-[4-methyl-4-[[3-(trifluoromethyl)phenyl]sulfonyl]-tetrahydro-pyran-2-yl]-pyridine] | 75 to 95 |  |
| CC1(S(=O)(=O)c2cccc(C(F)(F)F)c2)CCOC(c2nnc(C(F)(F)F)o2)C1 (single isomer, unassigned) [SC-121, 2-[4-Methyl-4-[[3-(trifluoromethyl)phenyl]sulfonyl]-tetrahydro-pyran-2-yl]-5-(trifluoromethyl)-[1,3,4]oxadiazole] |  | C (%-Inhibition >40% up to ≤75%) |
| CC1(S(=O)(=O)c2cccc(C(F)(F)F)c2)CCOC(c2nnc(C(F)(F)F)o2)C1 (single isomer, unassigned) [SC-122, 2-[4-Methyl-4-[[3-(trifluoromethyl)phenyl]sulfonyl]-tetrahydro-pyran-2-yl]-5-(trifluoromethyl)-[1,3,4]oxadiazole] |  | B (%-Inhibition >75% up to ≤95%) |
| CC1(S(=O)(=O)c2cccc(C(F)(F)F)c2)CCOC(c2nnc(C(F)F)o2)C1 (single isomer, unassigned) [SC-123, 2-(Difluoro-methyl)-5-[4-methyl-4-[[3-(trifluoromethyl)phenyl]sulfonyl]-tetrahydro-pyran-2-yl]-[1,3,4]oxadiazole] |  | B (%-Inhibition >75% up to ≤95%) |
| CC1(S(=O)(=O)c2cccc(C(F)(F)F)c2)CCOC(c2nnc(C(F)F)o2)C1 (single isomer, unassigned) [SC-124, 2-(Difluoro-methyl)-5-[4-methyl-4-[[3-(trifluoromethyl)phenyl]sulfonyl]-tetrahydro-pyran-2-yl]-[1,3,4]oxadiazole] |  | C (%-Inhibition >40% up to ≤75%) |
| CC(C)c1nnc(C2CC(C)(S(=O)(=O)c3cccc(C(F)(F)F)c3)CCO2)o1 (single isomer, unassigned) [SC-125, 2-Isopropyl-5-[4-methyl-4-[[3-(trifluoromethyl)phenyl]sulfonyl]-tetrahydro-pyran-2-yl]-[1,3,4]oxadiazole] |  | C (%-Inhibition >40% up to ≤75%) |
| CC(C)c1nnc(C2CC(C)(S(=O)(=O)c3cccc(C(F)(F)F)c3)CCO2)o1 (single isomer, unassigned) [SC-126, 2-Isopropyl-5-[4-methyl-4-[[3-(trifluoromethyl)phenyl]sulfonyl]-tetrahydro-pyran-2-yl]-[1,3,4]oxadiazole] |  | B (%-Inhibition >75% up to ≤95%) |
| CC1(S(=O)(=O)c2cccc(C(F)(F)F)c2)CCOC(c2nnc(C3CC3)o2)C1 (single isomer, unassigned) [SC-128, 2-Cyclopropyl-5-[4-methyl-4-[[3-(trifluoromethyl)phenyl]sulfonyl]-tetrahydro-pyran-2-yl]-[1,3,4]oxadiazole] |  | B (%-Inhibition >75% up to ≤95%) |
| CC1(S(=O)(=O)c2cccc(C(F)(F)F)c2)CCOC(c2nnc(C3CC3)o2)C1 (single isomer, unassigned) [SC-129, 2-Cyclopropyl-5-[4-methyl-4-[[3-(trifluoromethyl)phenyl]sulfonyl]-tetrahydro-pyran-2-yl]-[1,3,4]oxadiazole] |  | C (%-Inhibition >40% up to ≤75%) |
| CC1(S(=O)(=O)c2cccc(C(F)(F)F)c2)CCOC(c2ncc(S(C)(=O)=O)cc2Cl)C1 (single isomer, unassigned) [SC-130, 3-Chloro-5-methylsulfonyl-2-[4-methyl-4-[[3-(trifluoromethyl)phenyl]sulfonyl]-tetrahydro-pyran-2-yl]-pyridine] | 75 to 95 |  |
| CC1(S(=O)(=O)c2cccc(C(F)(F)F)c2)CCOC(COc2cnc(C3CC3)cn2)C1 (single isomer, unassigned) [SC-132, 2-Cyclopropyl-5-[[4-methyl-4-[[3-(trifluoromethyl)phenyl]sulfonyl]-tetrahydro-pyran-2-yl]-methoxy]-pyrazine] | 75 to 95 |  |
| CC1(S(=O)(=O)c2cccc(C(F)(F)F)c2)CCOC(COc2cnc(C3CC3)cn2)C1 (single isomer, unassigned) [SC-133, 2-Cyclopropyl-5-[[4-methyl-4-[[3-(trifluoromethyl)phenyl]sulfonyl]-tetrahydro-pyran-2-yl]-methoxy]-pyrazine] |  | A (%-Inhibition >95%) |
